Experimental data published in ChEMBL document CHEMBL1201862, “PubChem BioAssay data set” (2004).
Activity calls are given as the source filed them.

What was measured:
[1] = target: T1, Heat shock factor protein 1 (Mus musculus, UniProt P38532); assay: enhancement of HSF1-driven luciferase signal – cell-based, NIH3T3, luminescence, dose retest, confirmation (AID 435004); format: functional;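 further: stress induced by proteasome inhibitor MG132 added 30 min after compound; luciferase reporter driven by HSF1 response element in NIH3T3 cells; actives raise luminescence as potentiators of the MG132 stress response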
T1 sequence (P38532 whole entry): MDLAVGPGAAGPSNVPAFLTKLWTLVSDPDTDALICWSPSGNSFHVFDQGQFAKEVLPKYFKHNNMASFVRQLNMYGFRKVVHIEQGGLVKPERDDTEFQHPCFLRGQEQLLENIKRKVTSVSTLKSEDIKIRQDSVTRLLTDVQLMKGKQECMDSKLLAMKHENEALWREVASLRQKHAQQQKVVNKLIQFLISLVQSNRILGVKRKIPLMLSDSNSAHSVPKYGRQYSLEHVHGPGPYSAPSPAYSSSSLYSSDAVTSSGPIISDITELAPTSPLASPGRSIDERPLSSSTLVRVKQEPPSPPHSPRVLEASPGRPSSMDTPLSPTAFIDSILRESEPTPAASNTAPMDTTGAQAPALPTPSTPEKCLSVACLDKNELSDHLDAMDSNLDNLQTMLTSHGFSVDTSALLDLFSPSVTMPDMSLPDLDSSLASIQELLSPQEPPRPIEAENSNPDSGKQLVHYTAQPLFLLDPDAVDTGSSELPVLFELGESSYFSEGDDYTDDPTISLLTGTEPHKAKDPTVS

cells = format: functional
Melanocortin receptor 4 = Melanocortin receptor 4 (Homo sapiens, UniProt P32245); assay: inhibitors of MC4R cAMP signaling – cell-based, TR-FRET, biased antagonists, dose response (AID 602298); format: functional;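 further: antagonist potency against agonist-stimulated cAMP production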
Melanocortin receptor 4, sequence (P32245 whole entry): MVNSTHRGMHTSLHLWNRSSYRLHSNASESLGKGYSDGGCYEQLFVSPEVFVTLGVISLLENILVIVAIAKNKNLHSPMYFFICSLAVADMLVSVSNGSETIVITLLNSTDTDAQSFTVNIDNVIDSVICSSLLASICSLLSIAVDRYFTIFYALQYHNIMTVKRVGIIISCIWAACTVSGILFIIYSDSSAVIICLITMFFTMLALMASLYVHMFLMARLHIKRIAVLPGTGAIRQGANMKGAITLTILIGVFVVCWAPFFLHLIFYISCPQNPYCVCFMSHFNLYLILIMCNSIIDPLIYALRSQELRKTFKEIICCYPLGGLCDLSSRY

[2] = cAMP pathway inhibition in counterscreen cell line – TR-FRET cAMP detection, counter-screen for MC4R biased antagonist project, dose response (AID 602305); format: functional, cell-based;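 further: U2OS cells stimulated with forskolin near its EC80 as the cAMP inducer; potency is for inhibition of forskolin-stimulated cAMP signaling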
[3] = target: T2, Histone-lysine N-methyltransferase NSD2 (Homo sapiens, UniProt O96028); format: biochemical
T2 sequence (O96028 whole entry): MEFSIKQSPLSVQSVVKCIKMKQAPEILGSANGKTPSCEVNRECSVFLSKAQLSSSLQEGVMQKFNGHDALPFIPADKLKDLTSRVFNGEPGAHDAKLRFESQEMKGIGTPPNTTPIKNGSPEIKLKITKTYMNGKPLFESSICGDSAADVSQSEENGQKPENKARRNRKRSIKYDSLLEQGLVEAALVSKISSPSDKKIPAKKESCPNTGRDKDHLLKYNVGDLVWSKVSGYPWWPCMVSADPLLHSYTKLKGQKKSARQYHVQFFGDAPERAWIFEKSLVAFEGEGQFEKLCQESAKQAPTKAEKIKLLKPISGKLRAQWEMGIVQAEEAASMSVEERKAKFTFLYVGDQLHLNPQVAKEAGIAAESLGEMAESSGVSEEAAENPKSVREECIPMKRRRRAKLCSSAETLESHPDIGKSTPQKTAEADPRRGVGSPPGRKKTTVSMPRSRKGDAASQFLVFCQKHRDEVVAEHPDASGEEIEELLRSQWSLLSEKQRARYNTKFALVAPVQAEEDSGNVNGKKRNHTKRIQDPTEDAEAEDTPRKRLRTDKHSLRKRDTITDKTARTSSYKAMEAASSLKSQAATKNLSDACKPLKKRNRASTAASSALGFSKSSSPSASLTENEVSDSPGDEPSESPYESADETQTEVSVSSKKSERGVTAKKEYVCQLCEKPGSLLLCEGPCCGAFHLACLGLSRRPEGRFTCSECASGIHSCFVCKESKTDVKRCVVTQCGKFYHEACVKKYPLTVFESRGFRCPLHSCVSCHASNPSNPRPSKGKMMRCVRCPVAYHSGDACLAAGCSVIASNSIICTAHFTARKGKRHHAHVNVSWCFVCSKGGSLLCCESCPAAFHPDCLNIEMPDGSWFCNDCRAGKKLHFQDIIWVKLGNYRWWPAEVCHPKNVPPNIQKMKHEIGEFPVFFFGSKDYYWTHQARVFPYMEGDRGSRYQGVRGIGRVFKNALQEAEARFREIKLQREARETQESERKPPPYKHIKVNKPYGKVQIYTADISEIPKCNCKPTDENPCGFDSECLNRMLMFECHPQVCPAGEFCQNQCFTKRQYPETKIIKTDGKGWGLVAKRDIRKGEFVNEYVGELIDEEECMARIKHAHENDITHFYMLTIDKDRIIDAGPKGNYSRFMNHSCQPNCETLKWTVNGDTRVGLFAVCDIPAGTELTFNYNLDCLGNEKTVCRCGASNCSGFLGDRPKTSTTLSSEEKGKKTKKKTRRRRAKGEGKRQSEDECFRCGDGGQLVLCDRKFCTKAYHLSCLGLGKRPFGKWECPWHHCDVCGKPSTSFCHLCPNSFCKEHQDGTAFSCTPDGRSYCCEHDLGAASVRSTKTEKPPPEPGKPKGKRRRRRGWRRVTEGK

[4] = target: Mitogen-activated protein kinase 13 (Homo sapiens, UniProt O15264); format: functional
Mitogen-activated protein kinase 13, sequence (O15264 whole entry): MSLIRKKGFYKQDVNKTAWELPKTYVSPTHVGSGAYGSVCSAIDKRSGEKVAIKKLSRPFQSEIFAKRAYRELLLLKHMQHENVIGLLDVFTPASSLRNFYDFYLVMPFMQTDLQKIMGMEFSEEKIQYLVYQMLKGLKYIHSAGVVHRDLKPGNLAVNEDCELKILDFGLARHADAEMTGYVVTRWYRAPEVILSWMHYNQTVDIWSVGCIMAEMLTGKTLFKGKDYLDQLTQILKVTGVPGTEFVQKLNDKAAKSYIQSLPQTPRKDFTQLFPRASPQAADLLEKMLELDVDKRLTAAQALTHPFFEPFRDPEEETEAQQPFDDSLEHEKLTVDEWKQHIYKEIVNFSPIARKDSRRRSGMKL

Activin receptor type-1 = target: T3, Activin receptor type-1 (Homo sapiens, UniProt Q04771); assay: Navigating the Kinome. Panel member name: ACVR1; format: functional
T3 sequence (Q04771 whole entry): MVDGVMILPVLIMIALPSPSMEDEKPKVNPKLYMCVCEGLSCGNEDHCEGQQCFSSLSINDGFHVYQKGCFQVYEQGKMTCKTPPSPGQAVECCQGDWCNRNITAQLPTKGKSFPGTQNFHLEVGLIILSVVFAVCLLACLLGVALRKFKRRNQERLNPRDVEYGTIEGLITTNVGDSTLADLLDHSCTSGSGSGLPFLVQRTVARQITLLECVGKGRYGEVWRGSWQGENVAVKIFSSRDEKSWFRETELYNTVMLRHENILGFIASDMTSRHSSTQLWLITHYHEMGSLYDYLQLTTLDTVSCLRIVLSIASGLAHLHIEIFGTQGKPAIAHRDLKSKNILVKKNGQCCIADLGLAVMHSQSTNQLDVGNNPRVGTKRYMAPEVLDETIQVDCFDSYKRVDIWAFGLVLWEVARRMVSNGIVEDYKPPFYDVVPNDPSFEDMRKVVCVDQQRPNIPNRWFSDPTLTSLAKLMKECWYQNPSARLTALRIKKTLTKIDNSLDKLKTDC

[5] = target: Mitogen-activated protein kinase 8 (Homo sapiens, UniProt P45983); format: functional;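 further: value comes from one member of a kinome-wide kinase profiling panel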
Mitogen-activated protein kinase 8, sequence (P45983 whole entry): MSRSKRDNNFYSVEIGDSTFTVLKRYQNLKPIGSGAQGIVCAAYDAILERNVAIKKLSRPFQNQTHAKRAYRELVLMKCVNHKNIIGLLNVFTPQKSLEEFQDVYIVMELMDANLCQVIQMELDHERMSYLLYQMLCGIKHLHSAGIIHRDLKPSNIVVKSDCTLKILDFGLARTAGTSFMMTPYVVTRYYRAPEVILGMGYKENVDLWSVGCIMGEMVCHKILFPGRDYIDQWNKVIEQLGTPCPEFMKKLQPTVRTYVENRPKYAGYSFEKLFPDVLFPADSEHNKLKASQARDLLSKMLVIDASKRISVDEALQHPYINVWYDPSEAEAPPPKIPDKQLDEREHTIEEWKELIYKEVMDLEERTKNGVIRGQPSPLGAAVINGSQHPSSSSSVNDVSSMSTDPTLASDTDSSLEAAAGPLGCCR

[6] = target: Fibroblast growth factor receptor 1 (Homo sapiens, UniProt P11362); format: functional
[7] = target: Casein kinase I isoform alpha (Homo sapiens, UniProt P48729); format: functional
LIM domain kinase 1 = LIM domain kinase 1 (Homo sapiens, UniProt P53667); assay: Navigating the Kinome. Panel member name: LIMK1; format: functional
Activated CDC42 kinase 1 = Activated CDC42 kinase 1 (Homo sapiens, UniProt Q07912); assay: Navigating the Kinome. Panel member name: ACK1; format: functional
[8] = target: Vascular endothelial growth factor receptor 2 (Homo sapiens, UniProt P35968); format: functional
Vascular endothelial growth factor receptor 2, sequence (P35968 whole entry): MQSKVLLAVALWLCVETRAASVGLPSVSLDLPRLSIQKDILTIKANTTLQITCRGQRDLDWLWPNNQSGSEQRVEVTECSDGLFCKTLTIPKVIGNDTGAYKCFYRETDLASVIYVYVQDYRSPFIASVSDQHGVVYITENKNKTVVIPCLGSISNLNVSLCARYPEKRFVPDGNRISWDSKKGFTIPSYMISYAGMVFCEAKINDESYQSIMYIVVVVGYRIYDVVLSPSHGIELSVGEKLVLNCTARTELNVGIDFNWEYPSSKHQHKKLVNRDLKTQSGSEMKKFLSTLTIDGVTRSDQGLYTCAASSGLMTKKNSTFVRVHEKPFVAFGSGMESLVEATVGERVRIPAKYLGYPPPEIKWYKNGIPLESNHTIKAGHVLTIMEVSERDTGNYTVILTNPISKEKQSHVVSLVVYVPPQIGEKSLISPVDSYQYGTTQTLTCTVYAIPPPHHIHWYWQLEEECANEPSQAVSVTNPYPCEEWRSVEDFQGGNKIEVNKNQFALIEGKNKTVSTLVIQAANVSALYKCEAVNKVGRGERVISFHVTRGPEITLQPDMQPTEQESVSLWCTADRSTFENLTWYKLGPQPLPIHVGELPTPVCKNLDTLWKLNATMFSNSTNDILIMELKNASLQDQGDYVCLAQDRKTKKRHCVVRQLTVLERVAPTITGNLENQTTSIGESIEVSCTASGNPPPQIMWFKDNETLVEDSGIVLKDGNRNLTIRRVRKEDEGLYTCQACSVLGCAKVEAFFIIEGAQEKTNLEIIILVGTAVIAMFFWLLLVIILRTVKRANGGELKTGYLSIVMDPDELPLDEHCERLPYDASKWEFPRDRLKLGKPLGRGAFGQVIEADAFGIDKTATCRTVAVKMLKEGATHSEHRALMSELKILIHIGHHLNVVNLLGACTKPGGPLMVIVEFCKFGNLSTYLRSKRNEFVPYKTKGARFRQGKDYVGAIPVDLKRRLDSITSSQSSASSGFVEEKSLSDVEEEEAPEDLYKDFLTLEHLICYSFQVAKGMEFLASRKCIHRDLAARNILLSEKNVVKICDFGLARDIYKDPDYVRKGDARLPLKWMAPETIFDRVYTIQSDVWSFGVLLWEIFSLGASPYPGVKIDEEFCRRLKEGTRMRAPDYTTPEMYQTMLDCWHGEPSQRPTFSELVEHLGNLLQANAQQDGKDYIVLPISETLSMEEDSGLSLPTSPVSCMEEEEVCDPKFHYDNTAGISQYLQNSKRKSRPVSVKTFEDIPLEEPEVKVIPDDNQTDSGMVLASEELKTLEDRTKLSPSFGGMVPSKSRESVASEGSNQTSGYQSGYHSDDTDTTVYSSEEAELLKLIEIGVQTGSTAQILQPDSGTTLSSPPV

[9] = target: Cyclin-dependent kinase 5 (Homo sapiens, UniProt Q00535); format: functional;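 further: CDK5 measured as one member of a kinase profiling panel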
Cyclin-dependent kinase 5, sequence (Q00535 whole entry): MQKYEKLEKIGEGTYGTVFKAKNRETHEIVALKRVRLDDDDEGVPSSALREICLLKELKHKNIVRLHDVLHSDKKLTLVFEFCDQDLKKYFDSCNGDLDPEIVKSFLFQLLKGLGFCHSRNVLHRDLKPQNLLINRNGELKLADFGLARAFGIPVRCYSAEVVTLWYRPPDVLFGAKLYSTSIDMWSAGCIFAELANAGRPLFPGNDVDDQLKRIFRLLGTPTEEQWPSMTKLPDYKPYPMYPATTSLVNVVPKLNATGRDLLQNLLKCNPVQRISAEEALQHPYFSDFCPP

[10] = target: Dual specificity tyrosine-phosphorylation-regulated kinase 1B (Homo sapiens, UniProt Q9Y463); assay: Navigating the Kinome. Panel member name: DYRK1B; format: functional
[11] = target: Platelet-derived growth factor receptor alpha (Homo sapiens, UniProt P16234); assay: Navigating the Kinome. Panel member name: PDGFRA; format: functional
Aurora kinase B = Aurora kinase B (Homo sapiens, UniProt Q96GD4); format: functional
[12] = target: Dual specificity protein kinase CLK4 (Homo sapiens, UniProt Q9HAZ1); format: functional
[13] = target: Mitogen-activated protein kinase kinase kinase kinase 4 (Homo sapiens, UniProt O95819); format: functional
Mitogen-activated protein kinase kinase kinase kinase 4, sequence (O95819 whole entry): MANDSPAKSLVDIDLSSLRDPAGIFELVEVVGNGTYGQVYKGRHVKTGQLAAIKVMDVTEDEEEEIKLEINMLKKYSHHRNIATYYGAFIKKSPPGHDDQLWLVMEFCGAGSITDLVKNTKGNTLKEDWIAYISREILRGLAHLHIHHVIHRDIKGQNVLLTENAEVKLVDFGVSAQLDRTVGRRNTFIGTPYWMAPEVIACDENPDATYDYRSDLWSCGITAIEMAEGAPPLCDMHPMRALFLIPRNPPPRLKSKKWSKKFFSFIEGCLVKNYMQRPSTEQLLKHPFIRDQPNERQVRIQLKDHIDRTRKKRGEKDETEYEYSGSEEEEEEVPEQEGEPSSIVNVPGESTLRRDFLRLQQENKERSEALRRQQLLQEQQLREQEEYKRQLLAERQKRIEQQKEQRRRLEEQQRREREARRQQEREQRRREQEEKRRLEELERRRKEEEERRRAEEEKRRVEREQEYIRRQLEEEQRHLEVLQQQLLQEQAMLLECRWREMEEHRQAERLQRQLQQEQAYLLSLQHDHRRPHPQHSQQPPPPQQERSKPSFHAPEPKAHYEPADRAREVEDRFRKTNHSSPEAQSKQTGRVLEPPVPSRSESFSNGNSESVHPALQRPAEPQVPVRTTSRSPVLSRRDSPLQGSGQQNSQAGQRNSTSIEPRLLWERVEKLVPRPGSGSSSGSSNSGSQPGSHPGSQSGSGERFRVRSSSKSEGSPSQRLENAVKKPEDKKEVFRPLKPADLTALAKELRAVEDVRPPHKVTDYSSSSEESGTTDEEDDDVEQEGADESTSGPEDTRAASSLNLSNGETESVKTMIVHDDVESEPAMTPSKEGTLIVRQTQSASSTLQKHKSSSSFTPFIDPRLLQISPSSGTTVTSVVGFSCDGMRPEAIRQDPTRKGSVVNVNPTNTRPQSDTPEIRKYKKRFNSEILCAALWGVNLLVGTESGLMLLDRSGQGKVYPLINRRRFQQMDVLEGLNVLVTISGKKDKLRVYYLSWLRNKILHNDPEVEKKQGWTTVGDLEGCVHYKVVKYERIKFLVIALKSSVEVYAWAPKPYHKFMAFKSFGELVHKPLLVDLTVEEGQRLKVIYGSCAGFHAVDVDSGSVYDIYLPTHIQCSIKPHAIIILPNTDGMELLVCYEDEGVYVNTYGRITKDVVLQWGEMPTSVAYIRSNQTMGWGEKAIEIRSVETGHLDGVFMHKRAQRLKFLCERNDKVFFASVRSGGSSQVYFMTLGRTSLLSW

[14] = target: Macrophage colony-stimulating factor 1 receptor (Homo sapiens, UniProt P07333); format: functional;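 further: value comes from the Navigating the Kinome screening panel, CSF1R member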
Macrophage colony-stimulating factor 1 receptor, sequence (P07333 whole entry): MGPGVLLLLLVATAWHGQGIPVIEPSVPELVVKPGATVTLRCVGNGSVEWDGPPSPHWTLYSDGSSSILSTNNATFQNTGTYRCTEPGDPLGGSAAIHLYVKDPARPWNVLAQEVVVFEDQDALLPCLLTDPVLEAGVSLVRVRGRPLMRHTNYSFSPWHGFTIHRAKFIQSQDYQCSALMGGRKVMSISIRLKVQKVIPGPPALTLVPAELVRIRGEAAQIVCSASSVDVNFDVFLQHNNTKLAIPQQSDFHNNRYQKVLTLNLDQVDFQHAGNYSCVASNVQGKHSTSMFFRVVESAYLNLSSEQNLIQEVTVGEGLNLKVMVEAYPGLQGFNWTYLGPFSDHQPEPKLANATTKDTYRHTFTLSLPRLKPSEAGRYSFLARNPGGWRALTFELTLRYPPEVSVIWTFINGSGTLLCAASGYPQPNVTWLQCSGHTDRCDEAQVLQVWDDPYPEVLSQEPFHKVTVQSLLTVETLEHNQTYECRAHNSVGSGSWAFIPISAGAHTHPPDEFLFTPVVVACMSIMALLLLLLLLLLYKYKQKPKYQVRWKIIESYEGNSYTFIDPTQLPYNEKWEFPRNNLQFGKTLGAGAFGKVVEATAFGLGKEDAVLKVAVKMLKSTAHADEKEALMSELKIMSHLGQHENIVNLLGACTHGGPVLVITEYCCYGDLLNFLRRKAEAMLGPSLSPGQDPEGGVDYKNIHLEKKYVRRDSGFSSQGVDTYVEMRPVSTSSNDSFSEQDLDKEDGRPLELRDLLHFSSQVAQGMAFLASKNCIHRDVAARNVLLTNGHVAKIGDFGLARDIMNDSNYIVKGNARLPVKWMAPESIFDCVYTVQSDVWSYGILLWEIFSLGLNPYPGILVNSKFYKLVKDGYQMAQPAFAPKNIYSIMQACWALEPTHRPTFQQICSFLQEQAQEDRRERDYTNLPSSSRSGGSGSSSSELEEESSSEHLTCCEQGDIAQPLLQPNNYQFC

[15] = target: Leukocyte tyrosine kinase receptor (Homo sapiens, UniProt P29376); assay: Navigating the Kinome. Panel member name: LTK; format: functional
[16] = Vero cell cytotoxicity, dose response, cytotoxicity control for M. tuberculosis growth inhibitor project, Vero cells, purified and synthesized compounds, set 5 (AID 504909); format: functional; conditions: Mycobacterium tuberculosis
[17] = Vero cell cytotoxicity, cytotoxicity control for M. tuberculosis inhibitor project, purified and synthesized samples, set 3 (AID 504684); format: functional
[18] = THP-1 cell cytotoxicity, cytotoxicity control, set 4 (AID 504911); format: functional; conditions: Mycobacterium tuberculosis
[19] = THP-1 cell cytotoxicity, dose response, cytotoxicity control, set 3 (AID 504852); format: functional; conditions: Mycobacterium tuberculosis
[20] = Vero cell cytotoxicity, dose response, cytotoxicity control for M. tuberculosis growth inhibitor project, Vero cells, purified and synthesized compounds, set 4 (AID 504854); format: functional; conditions: Mycobacterium tuberculosis

## CC(C)Cn1c(N)c(C(=O)COC(=O)c2ccc([N+](=O)[O-])o2)c(=O)n(C)c1=O
[1]
  EC50: 18.5 µM (active)
cells
  IC50: 1.57 µM (active)
Melanocortin receptor 4
  IC50: > 64.6 µM (inactive)
[2]
  IC50: > 64.6 µM (inactive)
[3]
  AC50: > 20 µM (inactive)

## O=S(=O)(NCCNCC=Cc1ccc(Br)cc1)c1cccc2cnccc12
[4]
  Ki: > 7.94 µM (inactive)

## Nc1n[nH]c2c(-c3ccccc3)cccc12
Activin receptor type-1
  Ki: 79.4 µM (active)
[5]
  Ki: 15.8 µM (active)
[6]
  Ki: 79.4 µM (active)
[7]
  Ki: 39.8 µM (active)
LIM domain kinase 1
  Ki: 63.1 µM (active)
Activated CDC42 kinase 1
  Ki: 79.4 µM (active)
[8]
  Ki: 50.1 µM (active)
[9]
  Ki: 50.1 µM (active)
[10]
  Ki: 50.1 µM (active)
[11]
  Ki: 50.1 µM (active)
Aurora kinase B
  Ki: 79.4 µM (active)
[12]
  Ki: 79.4 µM (active)
[13]
  Ki: 25.1 µM (active)
[14]
  Ki: 63.1 µM (active)
[15]
  Ki: 50.1 µM (active)

## CCSc1nc(=O)c2ccccc2[nH]1
[16]
  CC50: > 100 µM (active)
[17]
  CC50: > 100 µM (active)
[18]
  CC50: > 100 µM (active)
[19]
  CC50: > 100 µM (active)
[20]
  CC50: > 100 µM (active)
